{"source": "patent US9278991B2", "about": "“Anhydrous polymorphs of [(2R,3S,4R,5R)-5-(6-(cyclopentylamino)-9H-purin-9-yl)-3,4-dihydroxytetrahydrofuran-2-yl)} methyl nitrate and processes of preparation thereof” (Inotek Pharmaceuticals Corporation, priority 2012, dated 2016)", "assay_type_in_all_cases": "physicochemical", "key": {"[1]": {"test": "Curing (ripening) of Compound A aqueous suspension at 40 degrees C: conversion of form A1 to A2, followed by particle size, XRPD and microphotography", "experimental": "XRPD patterns were obtained using a high-throughput XRPD set-up. The plates were mounted on a Bruker GADDS diffractometer equipped with a Hi-Star area detector. The XRPD platform was calibrated using Silver Behenate for the long d-spacings and Corundum for the short d-spacings.\nData collection was carried out at room temperature using monochromatic CuKα radiation in the 2-theta region between 1.5 degrees and 41.5 degrees, which is the most distinctive part of the XRPD pattern between the polymorph forms. The diffraction pattern of each well was collected in 2 theta ranges (1.5 degrees≦2 theta≦21.5 degrees for the first frame, and 19.5 degrees≦2 theta≦41.5 degrees for the second) with an exposure time of 30 seconds for each frame. No background subtraction or curve smoothing was applied to the XRPD patterns. The carrier material used during XRPD analysis was transparent to X-rays and contributed only slightly to the background.\nAs described above the Form A1 can be obtained predominantly via recrystallization from ethanol or under slow evaporation conditions. It has also been established that ripening or curing of Compound A particles suspended in an aqueous suspension formulated for ocular delivery at 40 degrees C. for a relatively short period of time formed polymorph form A2 from polymorph form A1. The aqueous suspension samples were kept at 40 degrees C. for up to 108 hours and monitored by particle size measurement, XRPD and microphotography. […] XRPD analyses indicated a change in polymorph content from about 74% A1 to 26% A2 at time zero to 0% A1 to 100% A2 at 108 hours at 40 degrees C. […] Also, habit changes coupled with A2 growth were reflected in the XRPD patterns and could be monitored by a difference in selected peak intensities from planes within the crystal lattice perpendicular to the c axis that change in intensity as the habit of the crystal changes.\n(§1) The particle size analyses were performed on a Cilas 1180 Particle Size Analyzer. The parameters used were liquid mode, sample refractive index=1.62 (determined using Cargille immersion oils), liquid refractive index=1.333 (value for water), 30 second measurement, 180 rpm stifling, 120 rpm pump circulation, no sonication, 5 repeat measurements."}, "[2]": {"test": "Storage of aqueous suspension ocular formulation containing Compound A in the A1 polymorph at 2-8° C", "experimental": "When the aqueous suspension ocular formulation containing Compound A in the A1 polymorph is stored at 2-8° C., a temperature required to limit decomposition of Compound A over long term storage, the habit of the suspended particles changes slowly over a period of 6 to 12 months. During this time the small irregular particles of suspended drug change to rod-like habits, with many particles having a length along the longest dimension over 100 microns."}, "[3]": {"test": "Long term stability and particle size growth of cured (A2) aqueous formulation lots at 5 and 25 degrees Celsius", "conditions": "aqueous suspension, 6 month period at either 5° C. or 25° C.", "experimental": "as §1\nA batch of sterile material of Compound A was prepared as described above under the “Synthesis of Compound A”. The resulting Compound A material was then sterilized with gamma irradiation at up to 40 kGray and then formulated into the following aqueous formulations: […]\nVarious concentrations of Compound A formulation lots were prepared from 0.152, 0.30, 0.61, 0.91, 2.42, 0.46, 0.76%, W/V to provide for the ability to deliver different levels of Compound A per drop of formulation. For example one drop of the 0.152%, W/V of compound A would deliver 50 mcg per drop, 0.30%, W/V would deliver 100 mcg per drop, right through to 0.76% W/V delivering 250 mcg per drop. The formulation lots were then heated to undergo the curing step and convert the A1 polymorph form of Compound A to the A2 polymorph form of Compound A. The curing step was undertaken by placing the formulation lots at 40 degrees C. for 48 hours and then reverting the formulations lots to the desired longer term storage conditions for stability studies. […]"}}, "data": [{"smiles": "O=[N+]([O-])OC[C@H]1O[C@@H](n2cnc3c(NC4CCCC4)ncnc32)[C@H](O)[C@@H]1O", "note": "[Compound A, [2R,3S,4R,5R)-5-(6-(cyclopentylamino)-9H-purin-9-yl)-3,4-dihydroxytetrahydrofuran-2-yl)] methyl nitrate]", "values": [{"measurement": "average particle size change", "setting": "[1]; 40 degrees C, after 15 hours to 108 hours", "value": "remained effectively constant"}, {"measurement": "time over which XRPD peak intensity differences (crystal habit) changed", "setting": "[1]; 40 degrees C, constant thereafter", "value": "up to 9 hours"}, {"measurement": "average particle size change", "setting": "[1]; 40 degrees C, over 15 hours", "value": "increased significantly"}, {"measurement": "polymorph content A1 (XRPD)", "setting": "[1]; 108 hours at 40 degrees C", "value": 0, "unit": "%"}, {"measurement": "polymorph content A2 (XRPD)", "setting": "[1]; 108 hours at 40 degrees C", "value": 100, "unit": "%"}, {"measurement": "polymorph content A1 (XRPD)", "setting": "[1]; time zero", "value": "about 74%"}, {"measurement": "polymorph content A2 (XRPD)", "setting": "[1]; time zero", "value": "~26", "unit": "%"}]}, {"smiles": "O=[N+]([O-])OC[C@H]1O[C@@H](n2cnc3c(NC4CCCC4)ncnc32)[C@H](O)[C@@H]1O", "note": "[Form A1]", "values": [{"measurement": "resuspendability by sonication and shaking", "setting": "[2]; aqueous suspension after habit change at 2-8° C", "value": "much more difficult to resuspend"}, {"measurement": "particle length along the longest dimension (many particles)", "setting": "[2]; aqueous suspension stored at 2-8° C, 6 to 12 months", "value": "over 100 microns"}]}, {"smiles": "O=[N+]([O-])OC[C@H]1O[C@@H](n2cnc3c(NC4CCCC4)ncnc32)[C@H](O)[C@@H]1O", "note": "[Form A2]", "values": [{"measurement": "changes to particle habit, size or polymorph content on storage", "setting": "[3]", "value": "limit any further changes"}]}]}
